Where two headings read alike, the source gives them in different places. Ends that are not written are not given here.
Tested on: isolated rat soleus muscle
Test: insulin-stimulated incorporation of labelled glucose into glycogen in isolated rat soleus muscle (soleus muscle assay)
Assay type: cell-based
Excerpt: According to the present invention, we have developed methods for the efficient synthesis of amylin and amylin analogs which result in peptides of high purity which are substantially free of deletion peptides and other contaminating peptides and which show reproducibly high biological activity as measured by assays of its ability to cause resistance to insulin in vitro by inhibiting insulin-stimulated incorporation of labelled glucose into glycogen in isolated rat soleus muscle.
The present invention also provides synthetic human amylin produced by solid phase peptide synthesis which has an EC50 of about 2.5 nanomoles/liter±0.3 log units or less according to an assay of insulin-stimulated incorporation of labelled glucose into glycogen in isolated rat soleus muscle. In an especially preferred aspect, such synthetic human amylin is substantially free of deletion and other contaminating peptides. […]

EC50 (peptide at least about 95% pure after preparative RP-HPLC, read-out: EC50 as measured by soleus muscle assay): < 5 nM
EC50 (±0.3 log units, inhibition of insulin-stimulated glycogen synthesis, read-out: EC50 according to an assay of insulin-stimulated incorporation of labelled glucose into glycogen in isolated rat soleus muscle): ≤ 2.5 nM
Substance: Human Amylin (KCNTATCATQRLANFLVHSSNNFGAILSSTNVGSNTY-NH2; cysteine pairing not given here; UniProt P10997 34-70, looked up) [37-amino acid peptide with internal disulfide bond and C-terminal amide, made by solid phase peptide synthesis]

From patent US5424394A, “Synthetic preparation of amylin and amylin analogues” (priority 1993, dated 1995)
